In brackets after ≈: the same amount, converted by molar mass. Like-named read-outs stand apart in the source and are kept apart here. Where a SMILES comes first, the peptide text is derived from it. [ ]: non-standard residue; d: D form. ξ: configuration not given here. Oic = O=C(O)[C@@H]1C[C@@H]2CCCC[C@@H]2N1; Tic = O=C(O)[C@@H]1Cc2ccccc2CN1; 2Thi = N[C@@H](Cc1cccs1)C(=O)O; ξTic = O=C(O)C1Cc2ccccc2CN1; ξOic = O=C(O)C1CC2CCCCC2N1; Dab = NCC[C@H](N)C(=O)O; Ahx = NCCCCCC(=O)O; βAla = NCCC(=O)O
Assays:
[1] = Metabolic stability, dog liver microsomes; conditions: dog, microsomes, pH 7.4
[2] = Metabolic stability, rat liver microsomes; conditions: rat, microsomes, pH 7.4
[3] = Metabolic stability, human liver microsomes; conditions: human, microsomes, pH 7.4
[4] = Metabolic stability, mouse liver microsomes; conditions: mouse, microsomes, pH 7.4
[5] = Metabolic stability, monkey liver microsomes; conditions: monkey, microsomes, pH 7.4
[6] = system: Staphylococcus aureus Methicillin/Gentamicin/Tetracycline Resistant (ATCC 33592); conditions: in vitro MIC; tested at 100, 30, 10, 3, 1, 0.3 and 0.1 μM in 1% DMSO
[7] = system: Mycobacterium ranae (ATCC 110); conditions: ATCC 110
[8] = system: F. tularensis SCHU-S4; conditions: in vitro MIC
[9] = system: Bacillus anthracis Ames; conditions: in vitro MIC
[10] = system: B. melitensis 16M; conditions: in vitro MIC
[11] = system: Plague CO92; conditions: in vitro MIC
[12] = in vitro; conditions: human, microsomes, pH 7.4
[13] = in vitro; conditions: dog, microsomes, pH 7.4
[14] = in vitro; conditions: rat, microsomes, pH 7.4
[15] = in vitro; conditions: mouse, microsomes, pH 7.4
[16] = in vitro; conditions: monkey, microsomes, pH 7.4
[17] = system: Salmonella typhimurium (ATCC 13311); conditions: ATCC 13311
[18] = system: Bacillus subtillis (ATCC 43223); conditions: ATCC 43223
[19] = system: red blood cells

SMILES	Minimum Inhibitory Concentration Staphylococcus aureus ME/GM/TC resistant [6] [µM]	Minimum Inhibitory Concentration Mycobacterium ranae [7] [µM]	Minimum Inhibitory Concentration F. tularensis SCHU-S4 [8] [µg/mL]	Minimum Inhibitory Concentration B. melitensis 16M [10] [µg/mL]	remaining at 0.5 h, 1 μM [13] [%]	remaining at 1 h, 1 μM [13] [%]	remaining at 0.25 h, 1 μM [14] [%]	remaining at 0.5 h, 1 μM [14] [%]	remaining at 0.25 h, 1 μM [15] [%]	remaining at 0.5 h, 1 μM [15] [%]	remaining at 1 h, 1 μM [15] [%]	remaining at 1 h, 1 μM [14] [%]	also measured
C[C@]12CC[C@H]3[C@@H](CCC4=CC(=O)CC[C@@]43C)[C@@H]1CC[C@@H]2O [Testosterone, testosterone, reference compound]													remaining at 0.25 h, 1 μM [1]: 85%; remaining at 0.5 h, 1 μM [1]: 62%; remaining at 1 h, 1 μM [1]: 33%; remaining at 0.25 h, 1 μM [2]: 0%; remaining at 0.5 h, 1 μM [2]: 0%; remaining at 0.25 h, 1 μM [3]: 77%; remaining at 0.5 h, 1 μM [3]: 53%; remaining at 1 h, 1 μM [3]: 29%; remaining at 0.25 h, 1 μM [4]: 3%; remaining at 0.5 h, 1 μM [4]: 0%; remaining at 0.25 h, 1 μM [5]: 34%; remaining at 0.5 h, 1 μM [5]: 11%; remaining at 1 h, 1 μM [5]: 1%
CC(=O)NCC(=O)N[C@@H](Cc1ccccc1)C(=O)N1Cc2ccccc2CC1C(=O)N1C(C(=O)NCC(=O)N[C@@H](CCCCN)C(=O)N2Cc3ccccc3CC2C(=O)N2C(C(=O)NCC(=O)N[C@@H](Cc3ccccc3)C(=O)N3Cc4ccccc4CC3C(=O)N3C(C(=O)NCC(=O)N[C@@H](CCCCN)C(=O)N4Cc5ccccc5CC4C(=O)NCCCCCC(=O)N[C@@H](CCCCN)C(=O)N[C@@H](CCCCN)C(=O)N[C@@H](CCCCN)C(=O)N[C@@H](CCCCN)C(N)=O)CC4CCCCC43)CC3CCCCC32)CC2CCCCC21 (stereo partly drawn) [FKAB-1G-Ahx, Ac-GF-Tic-Oic-GK-Tic-Oic-GF-Tic-Oic-GK-Tic-Ahx-KKKK-CONH2] (Ac-GF[ξTic][ξOic]GK[ξTic][ξOic]GF[ξTic][ξOic]GK[ξTic][Ahx]KKKK-NH2)	30	10	250	>500	79	84	120	106	97	98	113		Minimum Inhibitory Concentration Bacillus anthracis Ames ([9]; listed as 54): 1.95 µg/mL; Minimum Inhibitory Concentration Plague CO92 ([11]; listed as 54): 15.6 µg/mL; remaining at 0.25 h, 1 μM [12]: 112%
CC(=O)NCC(=O)N[C@@H](Cc1ccccc1)C(=O)N1Cc2ccccc2CC1C(=O)N1C(C(=O)NCC(=O)N[C@@H](CCN)C(=O)N2Cc3ccccc3CC2C(=O)N2C(C(=O)NCC(=O)N[C@@H](Cc3ccccc3)C(=O)N3Cc4ccccc4CC3C(=O)N3C(C(=O)NCC(=O)N[C@@H](CCN)C(=O)N4Cc5ccccc5CC4C(=O)N[C@@H](CCN)C(=O)N[C@@H](CCN)C(=O)N[C@@H](CCN)C(=O)N[C@@H](CCN)C(N)=O)CC4CCCCC43)CC3CCCCC32)CC2CCCCC21 (stereo partly drawn) [FKAB-1Gz, Ac-GF-Tic-Oic-G-Dab-Tic-Oic-GF-Tic-Oic-G-Dab-Tic-Dab-Dab-Dab-Dab-CONH2] (Ac-GF[ξTic][ξOic]G[Dab][ξTic][ξOic]GF[ξTic][ξOic]G[Dab][ξTic][Dab][Dab][Dab][Dab]-NH2)	10	10	125	>500		3	21	7	74	29	42	80	Minimum Inhibitory Concentration Bacillus anthracis Ames ([9]; listed as 55): 0.98 µg/mL; Minimum Inhibitory Concentration Plague CO92 ([11]; listed as 55): 15.6 µg/mL; remaining at 0.5 h, 1 μM [16]: 119%
CC(=O)NCC(=O)N[C@@H](Cc1ccccc1)C(=O)N1Cc2ccccc2C[C@H]1C(=O)N1[C@H](C(=O)NCC(=O)N[C@@H](CCCCN)C(=O)N2Cc3ccccc3C[C@H]2C(=O)N2[C@H](C(=O)NCC(=O)N[C@@H](Cc3ccccc3)C(=O)N3Cc4ccccc4C[C@H]3C(=O)N3[C@H](C(=O)NCC(=O)N[C@@H](CCCCN)C(=O)N4Cc5ccccc5C[C@H]4C(=O)NCCC(=O)N[C@@H](CCCCN)C(=O)N[C@@H](CCCCN)C(=O)N[C@@H](CCCCN)C(=O)N[C@@H](CCCCN)C(N)=O)C[C@@H]4CCCC[C@@H]43)C[C@@H]3CCCC[C@@H]32)C[C@@H]2CCCC[C@@H]21 [FKAB-1G-βA, Ac-GF-Tic-Oic-GK-Tic-Oic-GF-Tic-Oic-GK-Tic-βAla-KKKK-CONH2] (Ac-GF[Tic][Oic]GK[Tic][Oic]GF[Tic][Oic]GK[Tic][βAla]KKKK-NH2)	30	10	250	>500	66	105	118		11			44	Minimum Inhibitory Concentration Bacillus anthracis Ames ([9]; listed as 52): 1.95 µg/mL; Minimum Inhibitory Concentration Plague CO92 ([11]; listed as 52): 31.25 µg/mL
NCCCC[C@H](NC(=O)[C@H](CCCCN)NC(=O)[C@H](CCCCN)NC(=O)[C@H](CCCCN)NC(=O)C1Cc2ccccc2CN1C(=O)[C@H](CCCCN)NC(=O)CNC(=O)C1CC2CCCCC2N1C(=O)C1Cc2ccccc2CN1C(=O)[C@H](Cc1ccccc1)NC(=O)CNC(=O)C1CC2CCCCC2N1C(=O)C1Cc2ccccc2CN1C(=O)[C@H](CCCCN)NC(=O)CNC(=O)C1CC2CCCCC2N1C(=O)C1Cc2ccccc2CN1C(=O)[C@H](Cc1ccccc1)NC(=O)CNC(=O)[C@@H](N)Cc1cccs1)C(N)=O (stereo partly drawn) [FKAB-1G-Thi, Thi-GF-Tic-Oic-GK-Tic-Oic-GF-Tic-Oic-GK-Tic-KKKK-CONH2] (H-[2Thi]GF[ξTic][ξOic]GK[ξTic][ξOic]GF[ξTic][ξOic]GK[ξTic]KKKK-NH2)	10	30	250	>500	61		107	61	41	67			Minimum Inhibitory Concentration Bacillus anthracis Ames ([9]; listed as 56): 1.95 µg/mL; Minimum Inhibitory Concentration Plague CO92 ([11]; listed as 56): 15.6 µg/mL
CC(=O)NCC(=O)N[C@@H](Cc1ccccc1)C(=O)N1Cc2ccccc2CC1C(=O)NCC(=O)N[C@@H](CCCCN)C(=O)N1Cc2ccccc2CC1C(=O)NCC(=O)N[C@@H](Cc1ccccc1)C(=O)N1Cc2ccccc2CC1C(=O)NCC(=O)N[C@@H](CCCCN)C(=O)N1Cc2ccccc2CC1C(=O)N[C@@H](CCCCN)C(=O)N[C@@H](CCCCN)C(=O)N[C@@H](CCCCN)C(=O)N[C@@H](CCCCN)C(N)=O (stereo partly drawn) [FKAB-1Gg, Ac-GF-Tic-GK-Tic-GF-Tic-GK-Tic-KKKK-CONH2] (Ac-GF[ξTic]GK[ξTic]GF[ξTic]GK[ξTic]KKKK-NH2)			250	>500									MIC Salmonella typhimurium [17]: 100 µM (≈ 199 µg/mL); MIC Mycobacterium ranae [7]: 30.00 µM (≈ 59.6 µg/mL); MIC Bacillus Subtillis [18]: 10.00 µM (≈ 19.9 µg/mL); % hemolysis 100/25 μM (first value) ([19]; 100 μM): 6%; % hemolysis 100/25 μM (second value) [19]; 25: 4.9%; Minimum Inhibitory Concentration Bacillus anthracis Ames ([9]; listed as 34): 0.98 µg/mL; Minimum Inhibitory Concentration Plague CO92 ([11]; listed as 34): 31.25 µg/mL

From US20120197004A1, “NOVEL ANTI-MICROBIAL PEPTIDOMIMETIC COMPOUNDS AND METHODS TO CALCULATE ANTI-MICROBIAL ACTIVITY” (priority 2006, published 2012)
